Experiment [1] deals with T1, Human recombinant collagenase (MMP-1) (Homo sapiens, UniProt P03956).
T1 sequence (P03956 100-469): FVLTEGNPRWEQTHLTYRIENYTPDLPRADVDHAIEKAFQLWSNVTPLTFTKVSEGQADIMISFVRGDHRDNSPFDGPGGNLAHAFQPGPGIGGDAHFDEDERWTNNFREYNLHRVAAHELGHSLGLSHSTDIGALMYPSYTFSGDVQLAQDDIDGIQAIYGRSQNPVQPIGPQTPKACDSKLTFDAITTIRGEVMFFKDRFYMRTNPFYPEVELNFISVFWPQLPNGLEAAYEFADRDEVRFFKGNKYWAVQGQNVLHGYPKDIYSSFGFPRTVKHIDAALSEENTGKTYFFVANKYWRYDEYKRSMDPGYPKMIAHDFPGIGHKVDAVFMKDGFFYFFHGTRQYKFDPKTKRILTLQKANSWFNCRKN
Put plainly: Inhibition of Human Collagenase (MMP-1). It is filed as biochemical. To be noted: fluorogenic substrate DNP-Pro-Cha-Gly-Cys(Me)-His-Ala-Lys(NMA)-NH2; room temperature; repeated determinations. As to the method: Human recombinant collagenase is activated with trypsin using the following ratio: […] of collagenase. The trypsin and collagenase are incubated at room temperature for 10 minutes then a five fold excess (50 mg/10 mg trypsin) of soybean trypsin inhibitor is added.
10 mM stock solutions of inhibitors are made up in dimethyl sulfoxide and then diluted using the following Scheme: 10 mM → 120 µm → 12 µM → 1.2 µM → 0.12 µM [formula]
Twenty-five microliters of each concentration is then added in triplicate to appropriate wells of a 96 well microfluor plate. The final concentration of inhibitor will be a 1:4 dilution after addition of enzyme and substrate. Positive controls (enzyme, no inhibitor) are set up in wells D1-D6 and blanks (no enzyme, no inhibitors) are set in wells D7-D12.
Collagenase is diluted to 400 ng/ml and […] is then added to appropriate wells of the microfluor plate. Final concentration of collagenase in the assay is 100 ng/ml.
Substrate (DNP-Pro-Cha-Gly-Cys(Me)-His-Ala-Lys(NMA)-NH2) is made as a 5 mM stock in dimethyl sulfoxide and then diluted to […] in assay buffer. The assay is initiated by the addition of […] substrate per well of the microfluor plate to give a final concentration of […].
Fluorescence readings (360 nm excitation, 460 nm emission) were taken at time 0 and then at 20 minute intervals. The assay is conducted at room temperature with a typical assay time of 3 hours.
Fluorescence vs time is then plotted for both the blank and collagenase containing samples (data from triplicate determinations is averaged). […] The zero time is used as a blank for each compound at each concentration and these values are subtracted from the 120 minute data. Data is plotted as inhibitor concentration vs % control (inhibitor fluorescence divided by fluorescence of collagenase alone x 100). IC50's are determined from the concentration of inhibitor that gives a signal that is 50% of the control.
If IC50's are reported to be <0.03 mM then the inhibitors are assayed at concentrations of 0.3 mM, 0.03 mM, […].

Experiment [2] addresses Human recombinant MMP-13 (Homo sapiens, UniProt P45452). Put plainly: Inhibition of MMP-13. It counts as biochemical. The note with it: fluorogenic substrate Dnp-Pro-Cha-Gly-Cys(Me)-His-Ala-Lys(NMA)-NH2; repeated determinations. On the procedure: Human recombinant MMP-13 is activated with 2mM APMA (p-aminophenyl mercuric acetate) for 1.5 hours, at 37°C and is diluted to […] in assay buffer (50 mM Tris, pH 7.5, 200 mM sodium chloride, 5mM calcium chloride, […], 0.02% brij). Twenty-five microliters of diluted enzyme is added per well of a 96 well microfluor plate. The enzyme is then diluted in a 1:4 ratio in the assay by the addition of inhibitor and substrate to give a final concentration in the assay of […].
10 mM stock solutions of inhibitors are made up in dimethyl sulfoxide and then diluted in assay buffer as per the inhibitor dilution scheme for inhibition of human collagenase (MMP-1): Twenty-five microliters of each concentration is added in triplicate to the microfluor plate. The final concentrations in the assay are 30 mM, 3mM, 0.3 mM, and 0.03 mM.
Substrate (Dnp-Pro-Cha-Gly-Cys(Me)-His-Ala-Lys(NMA)-NH2) is prepared as for inhibition of human collagenase (MMP-1) and […] is added to each well to give a final assay concentration of […]. Fluorescence readings (360 nm excitation; 450 emission) are taken at time 0 and every 5 minutes for 1 hour.
Positive controls consist of enzyme and substrate with no inhibitor and blanks consist of substrate only.
IC50's are determined as per inhibition of human collagenase (MMP-1). If IC50's are reported to be less than […], inhibitors are then assayed at final concentrations of 0.3 mM, 0.03 mM, 0.003 mM and 0.0003 mM.

Several values for one entry are separate records, joined by “and”; a condition that tells them apart may be missing. Equal values may be shown once.

Results on four compounds are retold here after patent EP0895988B1, “Arylsulfonylamino hydroxamic acid derivatives” (Pfizer Products Inc., priority 1997, dated 1999).

As usually defined, the IC50 is the midpoint of a concentration-inhibition curve. Turning to `COC(=O)CCN(C1(C(=O)NO)CCCC1)S(=O)(=O)c1ccc(-c2ccc(F)cc2)cc1` [Example 1, 3-[(4'-FLUOROBIPHENYL-4-SULFONYL)-(1-HYDROXYCARBAMOYLCYCLO-PENTYL)AMINO]PROPIONIC ACID METHYL ESTER], the IC50 in experiment [1] was 80 nM and 145 nM; in experiment [2], 10 nM and 12 nM.
As to `O=C(O)CCN(C1(C(=O)NO)CCCC1)S(=O)(=O)c1ccc(-c2ccc(F)cc2)cc1` [Example 2, 3-[(4'-FLUOROBIPHENYL-4-SULFONYL)-(1-HYDROXYCARBAMOYLCYCLO-PENTYL)AMINO]PROPIONIC ACID], the IC50 in experiment [1] was 195 nM and 300 nM and 200 nM; in experiment [2], 1.7 nM and 3.5 nM and 2 nM.
As for `CCOC(=O)CCN(C(C)(C)C(=O)NO)S(=O)(=O)c1ccc(-c2ccc(F)cc2)cc1` [Example 3, 3-{(4'-FLUOROBIPHENYL-4-SULFONYL)-(1-HYDROXYCARBAMOYL-1-METHYL-ETHYL)AMINO]-PROPIONIC ACID ETHYL ESTER], the IC50 in experiment [1] was 4000 nM and 1300 nM; in experiment [2], 20 nM and 17 nM.
As for `CC(C)(C(=O)NO)N(CCC(=O)O)S(=O)(=O)c1ccc(-c2ccc(F)cc2)cc1` [Example 4, 3-[(4'-FLUOROBIPHENYL-4-SULFONYL)-(1-HYDROXYCARBAMOYL-1-METHYL-ETHYL)AMINO]PROPIONIC ACID], the 50% inhibitory concentration (IC50) turned out to be 800 nM in experiment [1] and 52 nM in experiment [2].
